Results: patent publication US7098364B2, “Phenylethanolamine compounds as β2-receptor agonists, and methods of use and preparation thereof” (Shenyang Pharmaceutical University, priority 2001, dated 2006)

Tested on: isolated guinea pig trachea strips
Assay: Antagonistic effect on histamine-induced bronchoconstriction in isolated guinea pig trachea strips
Assay type: cell-based
Conditions: trachea strips contracted by histamine (10^-6-10^-4 M) to 50% of maximum contraction; compounds at 10^-6 or 3×10^-4 M; Krebs-Hensleit solution, 37° C.
Method: The antagonistic effects of bronchoconstrtriction induced by histamine of the compounds of the present invention were evaluated by isolated guinea pig trachea strips.
Apparatus: polygrapher recorder, strain gauge transducer
Conditions: Krebs-Hensleit solution; gas mixture(95% O2, 5% CO2); Paper speed: 4 mm/min; 37° C.
Animals: guinea pigs (Harley, purchased from the Experimental Animal Center of China Medical University) of either sex weighting 350–500 g were used.
Reagent: Histamines phosphate solution(10^−6–10^−4M)
Method: Guinea pigs were sacrificed and the trachea strips(2 cm×3 mm) were prepared; the preparation was then mounted under a testing tension of 2 g in an organ bath containing 10 mL Kebs-Hensleits solution at 37° C. and superfused with the gas mixture mentioned above and the preparation was allowed to equilibrate for 2 h before the addition of histamine. When the tension of trachea strips reached 50% of the maximum contraction, the tested compounds was added to bath, and the antagonistic effect (represented as relaxing rate) was calculated as below: Relaxing rate=(Contraction intensity after histamine addition-Contraction intensity after tested compounds addition)/[…]×100%

| Structure (SMILES) | Relaxing rate (%) |
| --- | --- |
| CC(C)NC(CO)c1cc(Cl)c(N)c(C#N)c1.Cl.Cl (stereo not drawn) [drawing 20] | 70.5 |
| CC(C)(CO)NC(CO)c1cc(Br)c(N)c(C#N)c1.Cl (stereo not drawn) | 89.6 |
| CC(C)NC(CO)c1cc(Cl)c(N)c(C(F)(F)F)c1.Cl (stereo not drawn) | 52.5 |
| CC(C)(C)NC(CO)c1ccc(N)c(C(F)(F)F)c1.Cl (stereo not drawn) | 55.6 |
| CC(C)(CO)NC(CO)c1cc(Cl)c(N)c(C#N)c1.Cl.Cl (stereo not drawn) | 15.3 |
| CC(C)(CO)NC(CO)c1cc(Br)c(N)c(C(F)(F)F)c1.Cl (stereo not drawn) | 128.2 |
| Cl.Nc1c(Br)cc(C(CO)NC2CCC2)cc1C(F)(F)F (stereo not drawn) | 12.9 |
| CC(C)NC(CO)c1cc(Cl)c(N)c(C#N)c1.Cl.Cl (stereo not drawn) [drawing 7] | 69.2 |
| CC(C)NC(CO)c1ccc(N)c(C#N)c1.Cl (stereo not drawn) | 60.3 |
| Cl.Cl.N#Cc1cc(C(CO)NC2CCC2)cc(Br)c1N (stereo not drawn) | 30.8 |
| CC(C)(CO)NC(CO)c1ccc(N)c(C#N)c1.Cl (stereo not drawn) | 65.3 |
| CC(C)NC(CO)c1cc(Br)c(N)c(C#N)c1.Cl (stereo not drawn) | 77.6 |
| CC(C)(CO)NC(CO)c1cc(Cl)c(N)c(C(F)(F)F)c1.Cl (stereo not drawn) | 85.1 |
| Cl.Nc1c(Br)cc(C(CO)NC2CC2)cc1C(F)(F)F (stereo not drawn) | 10.2 |
| Cl.Cl.N#Cc1cc(C(CO)NC2CC2)ccc1N (stereo not drawn) | 15.7 |
| Cl.N#Cc1cc(C(CO)NC2CCC2)ccc1N (stereo not drawn) | 18.9 |
| Cl.N#Cc1cc(C(CO)NC2CCC2)cc(Cl)c1N (stereo not drawn) | 36.7 |
| Br.CC(C)(C)NC(CO)c1cc(Cl)c(N)c(C(F)(F)F)c1 (stereo not drawn) | 165.9 |
